Assay results reported in US6746688B1, “Apparatus for the transdermal treatment of Parkinson's disease” (Neuroderm Ltd., priority 1996, dated 2004).
Read-outs that look alike come from different tables or passages of the source.

Columns and labels:
Parkinson's disease = conditions: Refs. 19-21; cited from earlier work
[1] = Solubility of LD derivatives in potential solvents; assay type: physicochemical
Text: The solubility of LD, LD methyl ester (LDME) and LD ethyl ester (LDEE) was examined in several potential solvents, with increasing amounts of the three LD derivatives being added to a constant volume of 5% propionic acid in water or 10% propionic acid in propylene glycol.

[2] = Stability of LDEE in formulations by thin layer chromatography; assay type: physicochemical
Procedure: The stability of LDEE was tested in several combinations of potential components of the formulation. For this purpose, 500 mg LDEE was dissolved in 1 ml 5% propionic acid just before the beginning of the stability experiment. In parallel, 500 mg LDEE was dissolved in 1 ml propylene glycol containing 10% propionic acid. These preparations of LDEE were used as stock solutions for several tested formulations as follows: […]
1) LDEE in aqueous solution of 5% propionic as prepared above.
2) Same solution as in No. 1 above+5% sodium deoxycholate.
3) Same solution as in No. 1 above+5% sodium dodecylsulfate.
4) Same solution as in No. 1 above+5% Tween-20.
5) Same solution as in No. 1 above+5% tritonX100.
6) Same solution as in No. 1 above+glycerol at a ratio of 1:1.
7) Same solution as in No. 1 above+propylene glycol at a ratio of 2:1.
8) LDEE in propylene glycol containing 10% propionic acid.
9) Same solution as in No. 8 above+5% sodium deoxycholate.
10) Same solution as in No. 8 above+5% sodium dodecylsulfate.
The above LDEE formulations were run on a thin layer chromatography (on silica gel—Merk Art. 5735; and on cellulose—Merk Art. 5574) for a qualitative detection of LDEE and its degradative products. The various LDEE formulations were kept at room temperature for several days and separation of the LDEE and its degradative products on the thin layer chromatography were repeated at various times after dissolving the LDEE. The running solvents for the thin layer chromatography were:
a) Propanol: Butanoic Acid: Water (20:4:10).
b) Dichloromethane: Acetone: Ethyl-Acetate: Methanol (35:15:1:0.25).

[3] = Pilot experiment of transdermal delivery, LDEE in serum by HPLC with electrochemical detector; assay type: in vivo; conditions: two human volunteers, 24 h dermal exposure, propylene glycol with 10% propionic acid and 5% sodium deoxycholate or sodium dodecylsulfate
Procedure: In a pilot experiment of transdermal delivery, two human volunteers were exposed for 24 h to LDEE dissolved in propylene glycol containing 10% propionic acid and 5% of either sodium deoxycholate (one volunteer) or sodium dodecylsulfate (one volunteer). Blood samples were taken at various times after the application of the LDEE on the skin and LDEE in the serum was separated on high performance liquid chromatography and determined with an electrochemical detector. The protocol and the details of this pilot study are described in the enclosed appendix. […] These levels are considered appropriate for obtaining therapeutic effect in Parkinson's patients.

N[C@@H](Cc1ccc(O)c(O)c1)C(=O)O [LD, Levodopa]
LD plasma levels at which therapeutic effects were noticed (Parkinson's disease): 300 to 800 ng/mL | solubility [1]: negligible amounts

COC(=O)[C@@H](N)Cc1ccc(O)c(O)c1 [LDME, LD methyl ester]
solubility ([1]; 5% propionic acid in water): negligible amounts | solubility ([1]; 10% propionic acid in propylene glycol): negligible amounts

CCOC(=O)[C@@H](N)Cc1ccc(O)c(O)c1 [LDEE, levodopa-ethyl-ester]
solubility [1]: at least 660 mg in 1 ml | degradative products on thin layer chromatography ([2]; 24 h after dissolving, room temperature, formulations that contained tritonX100): Degradative products appeared | degradative products on thin layer chromatography ([2]; 24 h after dissolving, room temperature, other formulations (without tritonX100)): did not show significant degradation | degradative products on thin layer chromatography ([2]; 48 h after dissolving, room temperature, all the aqueous solutions): degradative products appeared | order of degradation among aqueous formulations ([2]; 48 h after dissolving, room temperature, aqueous solutions): formulation containing tritonX100>formulation containing Tween-20 >formulation containing sodium dodecylsulfate=formulation containing sodium deoxycholate | degradative products on thin layer chromatography ([2]; immediately after the preparation, all formulations): No degradative products were seen | time LDEE was stable ([2]; propylene glycol-based formulations, room temperature): more than 48 h | blood levels of LDEE after dermal application [3]: about 200 ng/ml
